The text below walks through data of patent publication US4381304A, “4,9-Dihydro-4,9-dioxo-1H-cyclohepta[b]pyridine derivatives” (Ayerst, McKenna & Harrison, Inc., priority 1981, dated 1983).

Read-outs that look alike come from different tables or passages of the source.

In data set [1] the target is T1, aldose reductase (Bos taurus, UniProt P16116).
T1 construct: preparation of the enzyme from bovine lens; from tissue; host or cells: bovine lens
Briefly: in vitro aldose reductase inhibition (modified Hayman and Kinoshita procedure). The settings on record: for inhibition at 10 µM: read-out: % Inhibition at Different Molar Concentrations (in vitro), 10^-5; for inhibition at 1 µM: 10^-6 molar, read-out: % Inhibition at Different Molar Concentrations (in vitro), 10^-6; for inhibition at 0.1 µM: 10^-7 molar, read-out: % Inhibition at Different Molar Concentrations (in vitro), 10^-7. It is filed as biochemical, bovine (lens). From the text:
In the present case the procedure of Hayman and Kinoshita is modified in that the final chromatography step is omitted in the preparation of the enzyme from bovine lens.

Data set [2] can be described thus: stability of the salt in the presence of acid. It is filed as physicochemical. The method, then: A mixture of 3-{[N-(methoxycarbonylmethyl)-N-methylamino]carbonyl}-4,9-dihydro-4,9-dioxo-1H-cyclohepta[b]pyridine-1-acetic acid ethyl ester (2.36 g, described in example 6) and 2% aqueous sodium hydroxide (w/v, 25 ml) was stirred at 25° C. for 4 hr. Evaporation of the reaction mixture gave the title disodium salt. […] The salt had mp>250° C.; nmr (D2 O) δ3.0 (d, 3H), 4.0 (d, 2H), 4.7 (s, 2H), 6.8-8.3 (m, 5H); ir (Nujol*) 3400, 3150, 1610 cm^-1 (with inflections at 1625 and 1585 cm^-1); uv λ max (MeOH) 340 nm (ε7,390), 237 (13,000); Anal Calcd for C16 H12 N2 O7 Na2.3H2 O: C, 43.24% H, 4.08% […]; Found: C, 42.76% H, 3.57%, N, 7.18%.

The test system of data set [3] is diabetic complications such as diabetic cataracts, neuropathy, nephropathy and retinopathy. The settings on record: literature report (U.S. Pat. No. 3,821,383); cited from earlier work.
Data set [4] relates to aldose reductase. As to conditions: literature report; cited from earlier work.
[5] abbreviates: 10^-5 molar, enzyme from bovine lens.

In the case of `CN(CC(=O)[O-])C(=O)c1cn(CC(=O)[O-])c2c(=O)ccccc2c1=O.[Na+].[Na+]` [Disodium Salt], on aldose reductase [1], the inhibition at 10 µM was determined as 22%.

As for `O=C(O)Cn1cc(C(=O)O)c(=O)c2cc(O)ccc(=O)c21` [Example 4 (R^1 COOH, R^2 6-OH), 3-carboxy-4,9-dihydro-6-hydroxy-4,9-dioxo-1H-cyclohepta[b]pyridine-1-acetic acid], at aldose reductase [1] (setting [5]), the inhibition at 10 µM is 84%. At aldose reductase [1] (enzyme from bovine lens), the inhibition at 1 µM was determined as 53% and the inhibition at 0.1 µM was 16%.

For the compound `CN(CC(=O)[O-])C(=O)c1cn(CC(=O)[O-])c2c(=O)ccccc2c1=O.[Na+].[Na+]`, in data set [2], the “stability in the presence of acid” value is given as “decomposed in the presence of acid”.

As for `O=C(O)CN1C(=O)c2cccc3cccc(c23)C1=O` [1,3-Dioxo-1H-benz[de]isoquinoline-2(3H)-acetic acid], the “usefulness for the treatment of diabetic complications (in words)” value in data set [3] was “useful for the treatment of diabetic complications such as diabetic cataracts, neuropathy, nephropathy and retinopathy”. Besides, the “aldose reductase inhibition (in words)” value with aldose reductase [4] is reported as “effective inhibitor of aldose reductase”.

As to `O=C1NC(=O)[C@@]2(CCOc3ccc(F)cc32)N1` [sorbinil, (S)-6-Fluoro-2,3-dihydrospiro(4H-1-benzopyran-4,4'-imidazolidine)-2',5'-dione], the “aldose reductase inhibition (in words)” value in the data set with aldose reductase [4] is listed as “aldose reductase inhibiting properties”.

As to `O=C(O)Cn1cc(C(=O)O)c(=O)c2ccccc(=O)c21` [Example 4 (R^1 COOH, R^2 H), 3-Carboxy-4,9-dihydro-4,9-dioxo-1H-cyclohepta[b]pyridine-1-acetic Acid], the inhibition at 10 µM on aldose reductase [1] (setting [5]) came out at 89%. At aldose reductase [1] (enzyme from bovine lens), the inhibition at 1 µM is 65% and the inhibition at 0.1 µM came to 19%.

As to `O=C(O)Cn1cc(C(=O)O)c(=O)c2cccc(Br)c(=O)c21` [Example 4 (R^1 COOH, R^2 8-Br), 8-bromo-3-carboxy-4,9-dihydro-4,9-dioxo-1H-cyclohepta[b]pyridine-1-acetic acid], at aldose reductase [1] (setting [5]), the inhibition at 10 µM was 81%. Besides, at aldose reductase [1] (enzyme from bovine lens), the inhibition at 1 µM worked out at 47% and the inhibition at 0.1 µM was determined as 14%.
